From ChEMBL document CHEMBL4118128, “Discovery of chiral dihydropyridopyrimidinones as potent, selective and orally bioavailable inhibitors of AKT” (Bioorg Med Chem Lett, 2018)
Values after ≈ are worked out from the molar mass of the structure shown. Active and inactive are the calls of the source. The calls are words filed in the database; no cut-off is given here.

What was measured:
[1] = Oral bioavailability in Sprague-Dawley rat at 5 mg/kg by LC-MS/MS method; type: ADME, organism-based; settings: in vivo
[2] = Aqueous solubility in pH 7.4 buffer; type: physicochemical
Homo sapiens = organism: Homo sapiens; assay: Selectivity index, ratio of IC50 for human recombinant ROCK2 (11 to 552 residues) expressed in insect cells to IC50 for human recombinant AKT1 expressed in insect cells
[3] = Clearance in Sprague-Dawley rat at 10 mg/kg, iv by LC-MS/MS method; type: ADME, organism-based; settings: in vivo
[4] = AUC (0 to 24 hrs) in wild type mouse at 2.5 mg/kg, po by LC-MS/MS method; type: ADME, organism-based; parameters: time < 24 hr, dose 2.5 mg/kg, route oral; settings: in vivo
[5] = AUC (0 to 24 hrs) in Sprague-Dawley rat at 5 mg/kg, po by LC-MS/MS method; type: ADME, organism-based; parameters: dose 5 mg/kg, time < 24 hr, route oral; settings: in vivo
[6] = Cmax in wild type mouse at 2.5 mg/kg, po by LC-MS/MS method; type: ADME, organism-based; parameters: dose 2.5 mg/kg, route oral; settings: in vivo
U-87 MG [7] = assay: Antitumor activity against human U87MG cells xenografted in rat assessed as inhibition of tumor growth at 25 to 50 mg/kg, po qd for 4 weeks; type: functional, organism-based; settings: U-87MG ATCC
[8] = target: Ribosomal protein S6 kinase beta-1 (Homo sapiens, UniProt P23443); assay: Inhibition of human p70S6K measured at apparent ATP Km level
[9] = target: T1, RAC-alpha serine/threonine-protein kinase (Homo sapiens, UniProt P31749); assay: Inhibition of human recombinant AKT1 expressed in insect cells incubated for 60 mins measured at apparent ATP Km level by kinase ADP-FP assay
[10] = target: Rho-associated protein kinase 2 (Homo sapiens, UniProt O75116); assay: Inhibition of histidine-tagged human recombinant ROCK2 (11 to 552 residues) expressed in insect cells using RFARKGSLRQKNV substrate incubated for 60 mins measured at apparent ATP Km level by kinase ADP-FP assay
[11] = AUC (0 to 24 hrs) in P-gp and BCRP knockout mouse at 2.5 mg/kg, po by LC-MS/MS method; type: ADME, organism-based; parameters: time < 24 hr, dose 2.5 mg/kg, route oral; settings: in vivo
[12] = target: Ribosomal protein S6 kinase alpha-1 (Homo sapiens, UniProt Q15418); assay: Inhibition of human RSK1 measured at apparent ATP Km level
[13] = target: Voltage-gated inwardly rectifying potassium channel KCNH2 (Homo sapiens, UniProt Q12809); assay: Inhibition of human ERG
[14] = target: Protein kinase C beta type (Homo sapiens, UniProt P05771); assay: Inhibition of human PKCbeta2 measured at apparent ATP Km level
Rattus norvegicus [15] = assay: Toxicity in human U87MG cells xenografted rat assessed as induction of body weight loss at 25 to 50 mg/kg, po qd for 4 weeks; type: organism-based; settings: in vivo, 672 h
Rattus norvegicus [16] = assay: Intrinsic unbound clearance in Sprague-Dawley rat at 10 mg/kg, iv by LC-MS/MS method; type: ADME, organism-based; settings: in vivo
[17] = Inhibition of human PKA measured at apparent ATP Km level
U-87 MG [18] = assay: Antitumor activity against human U87MG cells xenografted in rat assessed as inhibition of tumor growth at 25 mg/kg, po bid for 4 weeks; type: functional, organism-based; settings: U-87MG ATCC
[19] = Lipophilicity, log P of the compound; type: physicochemical; settings: octanol/water
[20] = Half life in Sprague-Dawley rat at 10 mg/kg, iv by LC-MS/MS method; type: ADME, organism-based; settings: in vivo
Rattus norvegicus [21] = assay: Toxicity in human U87MG cells xenografted rat assessed as induction of body weight loss at 25 mg/kg, po bid for 4 weeks; type: organism-based; settings: in vivo, 672 h
[22] = Cmax in P-gp and BCRP knockout mouse at 2.5 mg/kg, po by LC-MS/MS method; type: ADME, organism-based; parameters: dose 2.5 mg/kg, route oral; settings: in vivo
[23] = target: T1, RAC-alpha serine/threonine-protein kinase; assay: Inhibition of AKT1 in human U87MG cells assessed as reduction in GSK3beta Ser9 phosphorylation incubated for 1 hr by alpha screen Surefire assay; type: cell-based
[24] = Volume of distribution at steady state in Sprague-Dawley rat at 10 mg/kg, iv or 5 mg/kg, po by LC-MS/MS method; type: ADME, organism-based; settings: in vivo, read-out: Vdss
Mus musculus = assay: Ratio of AUC (0 to 24 hrs) in P-gp and BCRP knockout mouse at 2.5 mg/kg, po to AUC (0 to 24 hrs) in wild type mouse at 2.5 mg/kg, po; type: ADME, organism-based; settings: in vivo

Protein kinase C beta type, sequence (P05771 whole entry): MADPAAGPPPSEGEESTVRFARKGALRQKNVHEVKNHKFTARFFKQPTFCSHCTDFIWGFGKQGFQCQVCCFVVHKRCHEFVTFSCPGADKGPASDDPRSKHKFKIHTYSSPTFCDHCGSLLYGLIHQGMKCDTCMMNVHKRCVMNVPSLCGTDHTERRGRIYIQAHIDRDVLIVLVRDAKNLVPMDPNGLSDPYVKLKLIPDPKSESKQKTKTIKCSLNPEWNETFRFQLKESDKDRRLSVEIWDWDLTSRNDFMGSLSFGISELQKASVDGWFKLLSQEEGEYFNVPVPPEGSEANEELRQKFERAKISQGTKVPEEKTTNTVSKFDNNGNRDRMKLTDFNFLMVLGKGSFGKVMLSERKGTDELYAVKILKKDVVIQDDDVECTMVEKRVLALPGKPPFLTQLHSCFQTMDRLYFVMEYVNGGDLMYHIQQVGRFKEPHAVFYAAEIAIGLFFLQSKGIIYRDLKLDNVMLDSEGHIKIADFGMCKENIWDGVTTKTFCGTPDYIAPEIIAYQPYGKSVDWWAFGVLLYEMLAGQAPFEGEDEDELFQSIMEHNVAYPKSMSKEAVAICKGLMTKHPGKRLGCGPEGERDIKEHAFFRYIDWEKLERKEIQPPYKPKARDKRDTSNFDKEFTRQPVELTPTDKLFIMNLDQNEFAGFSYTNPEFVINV
Rho-associated protein kinase 2, sequence (O75116 whole entry, the tested form may be a part): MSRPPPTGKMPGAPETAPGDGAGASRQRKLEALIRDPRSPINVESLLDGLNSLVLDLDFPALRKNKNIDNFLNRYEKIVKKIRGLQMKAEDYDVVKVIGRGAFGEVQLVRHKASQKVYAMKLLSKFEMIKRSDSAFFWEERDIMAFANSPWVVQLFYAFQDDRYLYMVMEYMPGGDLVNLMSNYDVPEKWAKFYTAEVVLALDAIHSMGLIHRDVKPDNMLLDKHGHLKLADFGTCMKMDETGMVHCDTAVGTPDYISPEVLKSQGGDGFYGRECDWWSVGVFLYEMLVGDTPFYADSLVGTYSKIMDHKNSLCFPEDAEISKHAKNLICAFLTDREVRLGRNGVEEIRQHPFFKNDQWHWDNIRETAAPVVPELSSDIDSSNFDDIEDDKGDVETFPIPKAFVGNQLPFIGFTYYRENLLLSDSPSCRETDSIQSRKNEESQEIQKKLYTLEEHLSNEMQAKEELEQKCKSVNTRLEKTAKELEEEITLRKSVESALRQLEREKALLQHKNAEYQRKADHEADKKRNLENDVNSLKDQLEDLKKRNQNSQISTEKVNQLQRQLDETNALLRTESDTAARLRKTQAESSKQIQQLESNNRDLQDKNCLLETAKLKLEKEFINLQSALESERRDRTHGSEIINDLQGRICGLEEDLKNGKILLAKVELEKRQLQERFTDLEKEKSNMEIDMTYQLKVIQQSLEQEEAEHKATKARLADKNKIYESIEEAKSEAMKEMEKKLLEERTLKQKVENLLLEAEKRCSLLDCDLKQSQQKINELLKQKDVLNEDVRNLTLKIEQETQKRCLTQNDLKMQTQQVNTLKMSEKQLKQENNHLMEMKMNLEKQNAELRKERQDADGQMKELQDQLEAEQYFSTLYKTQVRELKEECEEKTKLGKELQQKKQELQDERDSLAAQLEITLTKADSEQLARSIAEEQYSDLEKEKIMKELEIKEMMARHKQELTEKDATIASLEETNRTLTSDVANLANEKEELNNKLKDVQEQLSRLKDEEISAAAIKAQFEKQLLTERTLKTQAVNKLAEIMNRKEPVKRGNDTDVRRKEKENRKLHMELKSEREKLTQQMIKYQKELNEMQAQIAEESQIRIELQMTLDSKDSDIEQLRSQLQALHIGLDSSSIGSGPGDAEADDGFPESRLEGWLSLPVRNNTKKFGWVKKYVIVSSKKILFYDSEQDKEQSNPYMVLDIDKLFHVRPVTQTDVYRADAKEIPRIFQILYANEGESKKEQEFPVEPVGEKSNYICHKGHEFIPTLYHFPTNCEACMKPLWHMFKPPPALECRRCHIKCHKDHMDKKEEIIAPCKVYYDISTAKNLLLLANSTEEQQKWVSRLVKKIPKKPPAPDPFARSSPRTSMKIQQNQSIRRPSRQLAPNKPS
Voltage-gated inwardly rectifying potassium channel KCNH2, sequence (Q12809 whole entry): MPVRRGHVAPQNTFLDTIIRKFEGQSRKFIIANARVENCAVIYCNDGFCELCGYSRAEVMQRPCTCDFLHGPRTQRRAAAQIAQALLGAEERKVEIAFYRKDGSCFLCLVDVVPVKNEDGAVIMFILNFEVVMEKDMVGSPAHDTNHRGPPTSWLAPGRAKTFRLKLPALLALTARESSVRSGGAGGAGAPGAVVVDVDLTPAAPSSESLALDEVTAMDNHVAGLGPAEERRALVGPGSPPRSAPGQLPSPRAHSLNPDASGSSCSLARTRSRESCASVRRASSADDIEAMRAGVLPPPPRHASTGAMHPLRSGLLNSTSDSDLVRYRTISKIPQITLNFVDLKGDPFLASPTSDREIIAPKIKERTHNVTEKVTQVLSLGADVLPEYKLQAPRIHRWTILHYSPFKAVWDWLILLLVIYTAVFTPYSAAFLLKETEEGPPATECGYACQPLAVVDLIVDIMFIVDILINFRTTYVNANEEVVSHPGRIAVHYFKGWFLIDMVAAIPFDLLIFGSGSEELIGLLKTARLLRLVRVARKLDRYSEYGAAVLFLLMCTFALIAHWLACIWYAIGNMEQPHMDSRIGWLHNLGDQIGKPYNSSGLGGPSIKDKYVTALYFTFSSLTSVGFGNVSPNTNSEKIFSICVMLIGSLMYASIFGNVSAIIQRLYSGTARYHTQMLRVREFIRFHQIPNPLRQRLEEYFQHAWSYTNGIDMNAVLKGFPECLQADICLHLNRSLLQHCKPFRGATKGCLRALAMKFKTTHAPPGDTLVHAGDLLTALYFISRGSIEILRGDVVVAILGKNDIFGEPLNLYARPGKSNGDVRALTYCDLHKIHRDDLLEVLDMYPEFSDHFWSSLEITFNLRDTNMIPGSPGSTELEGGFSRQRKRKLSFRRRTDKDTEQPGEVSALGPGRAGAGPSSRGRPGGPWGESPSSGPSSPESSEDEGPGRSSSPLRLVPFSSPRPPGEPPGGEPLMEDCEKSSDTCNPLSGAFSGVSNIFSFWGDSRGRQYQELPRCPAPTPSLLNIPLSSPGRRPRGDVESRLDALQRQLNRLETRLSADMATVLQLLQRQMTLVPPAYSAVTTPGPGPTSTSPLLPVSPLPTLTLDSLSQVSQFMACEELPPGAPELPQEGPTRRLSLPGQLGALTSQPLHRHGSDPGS
Ribosomal protein S6 kinase beta-1, sequence (P23443 whole entry): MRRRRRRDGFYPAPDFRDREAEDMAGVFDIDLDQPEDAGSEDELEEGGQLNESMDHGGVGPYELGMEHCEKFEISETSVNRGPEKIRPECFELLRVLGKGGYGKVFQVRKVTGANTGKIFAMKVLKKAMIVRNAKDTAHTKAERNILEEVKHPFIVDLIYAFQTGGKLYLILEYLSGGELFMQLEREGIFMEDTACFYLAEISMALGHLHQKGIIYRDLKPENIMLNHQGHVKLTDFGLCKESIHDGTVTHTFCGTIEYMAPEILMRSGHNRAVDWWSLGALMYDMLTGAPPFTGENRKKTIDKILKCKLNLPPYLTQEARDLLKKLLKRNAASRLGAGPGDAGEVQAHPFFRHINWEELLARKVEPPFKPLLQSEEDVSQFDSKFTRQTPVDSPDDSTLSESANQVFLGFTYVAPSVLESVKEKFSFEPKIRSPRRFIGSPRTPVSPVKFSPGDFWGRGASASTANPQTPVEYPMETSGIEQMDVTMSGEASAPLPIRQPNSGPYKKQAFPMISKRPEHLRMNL
T1 sequence (P31749 whole entry, the tested form may be a part): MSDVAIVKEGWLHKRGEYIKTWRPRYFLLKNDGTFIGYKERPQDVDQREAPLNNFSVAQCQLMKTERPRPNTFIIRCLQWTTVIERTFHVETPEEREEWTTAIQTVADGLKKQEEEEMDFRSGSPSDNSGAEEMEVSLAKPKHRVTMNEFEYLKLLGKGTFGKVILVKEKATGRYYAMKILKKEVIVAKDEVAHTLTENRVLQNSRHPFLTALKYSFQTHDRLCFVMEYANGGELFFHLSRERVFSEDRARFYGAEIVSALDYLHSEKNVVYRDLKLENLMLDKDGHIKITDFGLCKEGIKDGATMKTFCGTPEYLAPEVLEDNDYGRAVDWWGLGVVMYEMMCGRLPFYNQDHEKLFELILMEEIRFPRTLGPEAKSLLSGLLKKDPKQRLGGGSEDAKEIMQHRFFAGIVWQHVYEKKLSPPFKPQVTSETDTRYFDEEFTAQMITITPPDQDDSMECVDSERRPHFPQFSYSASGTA
Ribosomal protein S6 kinase alpha-1, sequence (Q15418 whole entry): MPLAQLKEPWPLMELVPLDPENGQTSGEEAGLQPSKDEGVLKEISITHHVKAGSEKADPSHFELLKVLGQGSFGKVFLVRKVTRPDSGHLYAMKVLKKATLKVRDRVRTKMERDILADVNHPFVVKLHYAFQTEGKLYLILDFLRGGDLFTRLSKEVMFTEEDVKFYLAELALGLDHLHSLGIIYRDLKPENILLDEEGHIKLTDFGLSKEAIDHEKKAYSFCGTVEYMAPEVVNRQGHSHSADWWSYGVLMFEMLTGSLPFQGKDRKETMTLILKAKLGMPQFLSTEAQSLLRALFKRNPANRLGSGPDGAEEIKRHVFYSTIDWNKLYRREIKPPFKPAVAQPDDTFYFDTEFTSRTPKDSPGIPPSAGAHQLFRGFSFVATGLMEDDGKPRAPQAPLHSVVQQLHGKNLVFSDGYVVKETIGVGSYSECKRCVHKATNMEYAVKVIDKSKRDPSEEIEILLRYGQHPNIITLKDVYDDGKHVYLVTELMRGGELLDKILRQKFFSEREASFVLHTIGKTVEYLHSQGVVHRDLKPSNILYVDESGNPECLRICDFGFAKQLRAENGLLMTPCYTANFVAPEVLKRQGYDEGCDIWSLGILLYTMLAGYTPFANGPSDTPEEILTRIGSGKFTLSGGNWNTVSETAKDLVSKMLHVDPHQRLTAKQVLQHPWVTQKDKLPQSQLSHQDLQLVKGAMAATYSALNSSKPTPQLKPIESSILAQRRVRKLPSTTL

Structure (SMILES)	bioavailability [1]	solubility [2]	Ratio IC50 (Homo sapiens)	clearance [3]	AUC(0-t) at 24 h [4]	AUC(0-t) at 24 h [5]	Cmax [6]	IC50 [8]	IC50 [9]	IC50 [10]	AUC(0-t) at 24 h [11]	IC50 [12]	INH [13]	IC50 [14]	CL free (Rattus norvegicus [16])	IC50 [17]	logP [19]	half-life [20]	IC50 [23]	Vd [24]	further results
C[C@@H]1CC(=O)Nc2ncnc(N3CCC(c4nc(CCC(F)(F)F)cn4CCN4CCCC4)CC3)c21	55%	990 µg/mL (≈ 1960 µM)	> 1000	74 mL/min/kg	290 ng·h/mL	638 ng·h/mL	76 ng/mL	399 nM	5 nM	> 20 µM	359 ng·h/mL	568 nM	18.5 µM	3.98 µM	43 mL/min/kg	84 nM	2.39	138 min	92 nM	11.6 L/kg	TGI (U-87 MG [7]): Dose-dependent effect; Activity (Rattus norvegicus [15]): Non-Toxic; TGI (U-87 MG [18]): Active; Activity (Rattus norvegicus [21]): Non-Toxic; Cmax [22]: 109 ng/mL
C[C@@H]1CC(=O)Nc2ncnc(N3CCC(c4nc(-c5ccc(F)c(C(F)(F)F)c5)cn4CCN4CCCC4)CC3)c21	–	35 µg/mL (≈ 61.2 µM)	> 1000	–	–	–	–	35 nM	3 nM	> 20 µM	–	20 nM	1.74 µM	0.036 µM	–	653 nM	4.84	–	39 nM	–	–
Cn1cc(-c2ccc(F)c(C(F)(F)F)c2)nc1C1CCN(c2ncnc3[nH]ncc23)CC1 [LY-2584702]	–	–	–	–	–	–	–	4 nM	–	–	–	–	–	–	–	–	–	–	–	–	–
C[C@@H]1CC(=O)Nc2ncnc(N3CCC(c4nc(C5CCOCC5)cn4CCN4CCCC4)CC3)c21	14%	> 2000 µg/mL	> 1000	64 mL/min/kg	108 ng·h/mL	173 ng·h/mL	33 ng/mL	1900 nM	4 nM	> 20 µM	501 ng·h/mL	699 nM	> 100 µM	20 µM	85 mL/min/kg	412 nM	0.95	516 min	230 nM	13.8 L/kg	Ratio (Mus musculus): 5; Cmax [22]: 189 ng/mL
C[C@@H]1CC(=O)Nc2ncnc(N3CCC(c4nc(C(F)(F)F)cn4CCN4CCCC4)CC3)c21	64%	1860 µg/mL (≈ 3900 µM)	> 1000	2.18 mL/min/kg	–	24100 ng·h/mL	–	876 nM	11 nM	> 20 µM	–	272 nM	> 100 µM	16.3 µM	66 mL/min/kg	124 nM	1.66	180 min	2460 nM	0.65 L/kg	–
